For assay [1], the target named is T1, human sphingosine-1-phosphate receptor 1 (S1P1) (Homo sapiens (Human), UniProt P21453). Put plainly: Inhibition of cAMP production (HTRF cAMP HiRange), S1P1 CHO-K1 cells. In kind it is cell-based. As to conditions: for Emax: CHO-K1, efficacy (SPAN) normalized to fingolimod, read-out: hS1P1 cAMP SPAN; for hS1P1 cAMP pEC50: inhibition of cAMP production, S1P1 CHO-K1 cells. In outline:
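CHO-K1 cells stably co-expressing human S1P1 (C-terminal Prolink tag) and EA-β-arrestin2 were grown in AssayComplete Media 6 at 37° C. and 5% CO2, plated, and incubated overnight. Agonist-driven inhibition of intracellular cAMP was read by TR-FRET with the HTRF cAMP HiRange kit on a PheraStar reader. Potency is pEC50, and efficacy (SPAN) is normalized to fingolimod.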
Target sequence in this assay (P21453 whole entry, looked up): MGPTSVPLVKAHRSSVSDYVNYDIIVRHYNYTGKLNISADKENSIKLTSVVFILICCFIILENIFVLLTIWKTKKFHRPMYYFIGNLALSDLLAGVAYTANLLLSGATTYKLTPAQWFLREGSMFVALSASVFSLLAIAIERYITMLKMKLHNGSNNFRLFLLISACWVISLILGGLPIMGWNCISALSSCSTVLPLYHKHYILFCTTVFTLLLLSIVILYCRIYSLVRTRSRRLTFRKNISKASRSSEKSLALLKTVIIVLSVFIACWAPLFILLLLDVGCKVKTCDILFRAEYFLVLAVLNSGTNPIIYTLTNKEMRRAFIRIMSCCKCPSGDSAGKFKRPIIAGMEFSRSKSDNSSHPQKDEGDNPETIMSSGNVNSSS

Assay [2] addresses T1, human sphingosine-1-phosphate receptor 1 (S1P1). The assay is described as follows: β-Arrestin2 recruitment assay (PathHunter), S1P1 CHO-K1 cells. In kind it is cell-based. Particulars: for Emax: CHO-K1, efficacy (SPAN) normalized to fingolimod, read-out: hS1P1 B-arrestin2 SPAN; for hS1P1 B-arrestin2 pEC50: β-arrestin2 recruitment, S1P1 CHO-K1 cells. In outline: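 Enzyme-fragment complementation read-out: agonist-driven β-arrestin2 binding to ProLink-tagged human S1P1 in stable CHO-K1 cells restores β-galactosidase, measured 1 h at room temperature after a 60 min 37° C. compound incubation. Potency as pEC50, efficacy relative to fingolimod (SPAN).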
Target sequence in this assay (P21453 whole entry, looked up): as above
Target sequence in this assay (P32121 whole entry partner, looked up): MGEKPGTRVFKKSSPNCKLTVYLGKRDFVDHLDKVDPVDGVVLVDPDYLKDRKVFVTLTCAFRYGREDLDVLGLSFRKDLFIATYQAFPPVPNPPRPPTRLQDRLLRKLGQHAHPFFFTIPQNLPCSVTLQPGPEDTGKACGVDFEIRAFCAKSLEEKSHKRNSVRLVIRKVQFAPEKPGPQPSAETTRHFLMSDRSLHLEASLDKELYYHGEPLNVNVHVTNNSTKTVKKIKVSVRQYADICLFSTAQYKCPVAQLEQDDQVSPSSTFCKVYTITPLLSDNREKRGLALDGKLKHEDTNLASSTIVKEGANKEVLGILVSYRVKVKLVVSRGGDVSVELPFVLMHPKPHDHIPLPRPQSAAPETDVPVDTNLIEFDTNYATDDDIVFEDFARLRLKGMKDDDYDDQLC

Regarding `CC(C)n1nnc2cc(-c3nc4ccncc4o3)ccc21` [Compound 503, 2-(1-isopropyl-1H-benzo[d][1,2,3]triazol-5-yl)oxazolo[5,4-c]pyridine], in assay [1], the Emax was over 75% and the “hS1P1 cAMP pEC50” value is reported as under 6.5. In assay [2], the Emax was over 75% and the “hS1P1 B-arrestin2 pEC50” value is under 5.

As to `CC(C)Cn1nnc2cc(-c3nc4ccncc4o3)ccc21` [Compound 504, 2-(1-isobutyl-1H-benzo[d][1,2,3]triazol-5-yl)oxazolo[5,4-c]pyridine], in assay [1], the Emax is over 75% and the “hS1P1 cAMP pEC50” value is on record as under 6.5. Further, in assay [2], the Emax is under 75% and the “hS1P1 B-arrestin2 pEC50” value is listed as under 5.

With `Cc1ccccc1-c1nc(-c2ccc3c(c2)nnn3CC(C)(C)CO)no1` [Compound 505, 2,2-dimethyl-3-(5-(5-(o-tolyl)-1,2,4-oxadiazol-3-yl)-1H-benzo[d][1,2,3]triazol-1-yl)propan-1-ol], in assay [1], the “hS1P1 cAMP pEC50” value is listed as under 6.5. Moreover, in assay [2], the “hS1P1 B-arrestin2 pEC50” value was under 5.

For `CC(C)Oc1ccc(-c2ccc(-c3ccc4c(c3)nnn4C(C)C)cc2)cc1C#N` [Compound 506, 4-isopropoxy-4′-(1-isopropyl-1H-benzo[d][1,2,3]triazol-5-yl)-[1,1′-biphenyl]-3-carbonitrile], in assay [1], the Emax was under 75% and the “hS1P1 cAMP pEC50” value is listed as over 6.5. In addition, in assay [2], the Emax was under 75% and the “hS1P1 B-arrestin2 pEC50” value is given as over 5.

As to `CC(C)Nc1ccc(-c2ccc(-c3ccc4c(c3)nnn4C(C)C)cc2)cc1C#N` [Compound 507, 4′-(1-isopropyl-1H-benzo[d][1,2,3]triazol-5-yl)-4-(isopropylamino)-[1,1′-biphenyl]-3-carbonitrile], in assay [1], the Emax is under 75% and the “hS1P1 cAMP pEC50” value is on record as over 6.5. Besides, in assay [2], the Emax is under 75% and the “hS1P1 B-arrestin2 pEC50” value is recorded as under 5.

In the case of `C=CCNc1ccc(-c2ccc(-c3ccc4c(c3)nnn4C(C)C)cc2)cc1C#N` [Compound 508, 4-(allylamino)-4′-(1-isopropyl-1H-benzo[d][1,2,3]triazol-5-yl)-[1,1′-biphenyl]-3-carbonitrile], in assay [1], the Emax was over 75% and the “hS1P1 cAMP pEC50” value was under 6.5. Moreover, in assay [2], the Emax is under 75% and the “hS1P1 B-arrestin2 pEC50” value is on record as under 5.

Turning to `CCC1(CC)CC(=O)c2cc(-c3ncc(-c4cccnc4)cn3)ccc2O1` [Compound 509, 2,2-diethyl-6-(5-(pyridin-3-yl)pyrimidin-2-yl)chroman-4-one], the “hS1P1 cAMP pEC50” value in assay [1] is under 6.5. Besides, the “hS1P1 B-arrestin2 pEC50” value in assay [2] is listed as under 5.

As to `CCC1(CC)CC(=O)c2cc(-c3ncc(-c4ccncc4)cn3)ccc2O1` [Compound 510, 2,2-diethyl-6-(5-(pyridin-4-yl)pyrimidin-2-yl)chroman-4-one], in assay [1], the “hS1P1 cAMP pEC50” value is listed as over 6.5. Further, the “hS1P1 B-arrestin2 pEC50” value in assay [2] is given as over 5.

On to `CC(C)n1nnc2cc(-c3nc(-c4ccc5nc[nH]c5c4)no3)ccc21` [Compound 511, 5-[3-(1H-1,3-benzodiazol-6-yl)-1,2,4-oxadiazol-5-yl]-1-(propan-2-yl)-1H-1,2,3-benzotriazole], for which, in assay [1], the Emax is under 75% and the “hS1P1 cAMP pEC50” value is over 6.5. In assay [2], the Emax was over 75% and the “hS1P1 B-arrestin2 pEC50” value is recorded as over 5.

As for `CCC1(CC)CC(=O)c2cc(-c3nc(-c4ccnc(NC(C)=O)c4)no3)ccc2O1` [Compound 512, N-(4-(5-(2,2-diethyl-4-oxochroman-6-yl)-1,2,4-oxadiazol-3-yl)pyridin-2-yl)acetamide], the “hS1P1 cAMP pEC50” value in assay [1] is recorded as over 6.5. For the same compound, in assay [2], the “hS1P1 B-arrestin2 pEC50” value is reported as over 5.

On to `COc1cccc2nc(-c3ccc4c(c3)nnn4C(C)C)oc12` [Compound 515, 2-(1-isopropyl-1H-benzo[d][1,2,3]triazol-5-yl)-7-methoxybenzo[d]oxazole], for which, in assay [1], the Emax was over 75% and the “hS1P1 cAMP pEC50” value was over 6.5. Further, in assay [2], the Emax was over 75% and the “hS1P1 B-arrestin2 pEC50” value is given as over 5.

`Cc1ccccc1-c1c[nH]c(-c2ccc3c(c2)nnn3C(C)C)c1` [Compound 516, 5-[4-(2-methylphenyl)-1H-pyrrol-2-yl]-1-(propan-2-yl)-1H-1,2,3-benzotriazole]: in assay [1], the Emax was under 75% and the “hS1P1 cAMP pEC50” value is under 6.5. In addition, in assay [2], the Emax was under 75% and the “hS1P1 B-arrestin2 pEC50” value is given as over 5.

Consider `Cc1ccccc1-c1cc(-c2ccc3c(c2)nnn3C(C)C)n(C)c1` [Compound 517, 5-[1-methyl-4-(2-methylphenyl)-1H-pyrrol-2-yl]-1-(propan-2-yl)-1H-1,2,3-benzotriazole], for which, in assay [1], the Emax was under 75% and the “hS1P1 cAMP pEC50” value is under 6.5. In addition, in assay [2], the Emax was under 75% and the “hS1P1 B-arrestin2 pEC50” value is over 5.

Regarding `Cc1cn(C)nc1-c1noc(-c2ccc3c(c2)nnn3CC(C)(C)O)n1` [Compound 518, 1-{5-[3-(1,4-dimethyl-1H-pyrazol-3-yl)-1,2,4-oxadiazol-5-yl]-1H-1,2,3-benzotriazol-1-yl}-2-methylpropan-2-ol], the “hS1P1 cAMP pEC50” value in assay [1] was under 6.5. Besides, the “hS1P1 B-arrestin2 pEC50” value in assay [2] is under 5.

Turning to `CCC1(CC)CC(=O)c2cc(-c3nc(-c4ccc5ncccc5c4)no3)ccc2O1` [Compound 521, 2,2-diethyl-6-(3-(quinolin-6-yl)-1,2,4-oxadiazol-5-yl)chroman-4-one], in assay [1], the “hS1P1 cAMP pEC50” value is recorded as under 6.5. Moreover, the “hS1P1 B-arrestin2 pEC50” value in assay [2] was under 5.

Consider `CCC1(CC)CC(=O)c2cc(-c3nc(-c4ccc5cnccc5c4)no3)ccc2O1` [Compound 522, 2,2-diethyl-6-(3-(isoquinolin-6-yl)-1,2,4-oxadiazol-5-yl)chroman-4-one], for which, in assay [1], the “hS1P1 cAMP pEC50” value is on record as under 6.5. Also, the “hS1P1 B-arrestin2 pEC50” value in assay [2] is reported as under 5.

On to `COc1ccc(-c2nc(-c3ccc4c(c3)nnn4CC(C)(C)CO)no2)c(C)c1` [Compound 523, 3-(5-(5-(4-methoxy-2-methylphenyl)-1,2,4-oxadiazol-3-yl)-1H-benzo[d][1,2,3]triazol-1-yl)-2,2-dimethylpropan-1-ol], for which, in assay [1], the “hS1P1 cAMP pEC50” value is listed as under 6.5. Moreover, the “hS1P1 B-arrestin2 pEC50” value in assay [2] was under 5.

As to `Cc1ccsc1-c1nc(-c2ccc3c(c2)nnn3CC(C)(C)CO)no1` [Compound 524, 2,2-dimethyl-3-(5-(5-(3-methylthiophen-2-yl)-1,2,4-oxadiazol-3-yl)-1H-benzo[d][1,2,3]triazol-1-yl)propan-1-ol], the “hS1P1 cAMP pEC50” value in assay [1] is recorded as over 6.5. Besides, the “hS1P1 B-arrestin2 pEC50” value in assay [2] is over 5.

For `COc1ccccc1-c1nc(-c2ccc3c(c2)nnn3CC(C)(C)CO)no1` [Compound 525, 3-(5-(5-(2-methoxyphenyl)-1,2,4-oxadiazol-3-yl)-1H-benzo[d][1,2,3]triazol-1-yl)-2,2-dimethylpropan-1-ol], the “hS1P1 cAMP pEC50” value in assay [1] is recorded as under 6.5. In addition, the “hS1P1 B-arrestin2 pEC50” value in assay [2] is given as under 5.

In the case of `CC(C)(CO)Cn1nnc2cc(-c3noc(-c4ccccc4Cl)n3)ccc21` [Compound 526, 3-(5-(5-(2-chlorophenyl)-1,2,4-oxadiazol-3-yl)-1H-benzo[d][1,2,3]triazol-1-yl)-2,2-dimethylpropan-1-ol], the “hS1P1 cAMP pEC50” value in assay [1] is listed as under 6.5. In assay [2], the “hS1P1 B-arrestin2 pEC50” value is under 5.

Take `CCc1ccccc1-c1nc(-c2ccc3c(c2)nnn3CC(C)(C)CO)no1` [Compound 527, 3-(5-(5-(2-ethylphenyl)-1,2,4-oxadiazol-3-yl)-1H-benzo[d][1,2,3]triazol-1-yl)-2,2-dimethylpropan-1-ol]: in assay [1], the “hS1P1 cAMP pEC50” value is given as under 6.5. Further, the “hS1P1 B-arrestin2 pEC50” value in assay [2] is under 5.

For the origin of these results see patent US11912693B2, “Compounds for modulating S1P1 activity and methods of using the same” (TREVENA, INC., priority 2017, dated 2024).
